ChEMBL document CHEMBL1144152, “Oceanapiside, an antifungal bis-alpha,omega-amino alcohol glycoside from the marine sponge Oceanapia phillipensis” (1999)
Converted amounts (≈) assume the structure as drawn. The source made the active and inactive calls. The calls are words filed in the database; no cut-off is given here.

Columns and labels:
Nakaseomyces glabratus = assay: Antifungal activity against fluconazole-resistant Candida glabrata by broth dilution method; format: functional
Candida albicans [1] = assay: Antifungal activity against Candida albicans ATCC 14503; format: functional, organism-based
Candida albicans [2] = assay: Antifungal activity against fluconazole-resistant Candida albicans 96-489; format: functional, organism-based
Candida albicans [3] = assay: Antifungal activity against fluconazole-resistant Candida albicans UCD-FR1; format: functional, organism-based
Pichia kudriavzevii = assay: Antifungal activity against Candida krusei; format: functional, organism-based

Row | Compound | MIC (Nakaseomyces glabratus) [µg/mL] | Activity (Candida albicans [1]) | Activity (Candida albicans [2]) | Activity (Candida albicans [3]) | Activity (Pichia kudriavzevii)
1 | C[C@@H]1[C@H](O)[C@@H](C)/C=C/C=C/C=C/C=C/C=C/C=C/C=C/[C@H](O[C@@H]2O[C@H](C)[C@@H](O)[C@H](N)[C@@H]2O)C[C@@H]2O[C@](O)(C[C@@H](O)C[C@@H](O)[C@H](O)CC[C@@H](O)C[C@@H](O)CC(=O)O[C@H]1C)C[C@H](O)[C@H]2C(=O)O [AMPHOTERICIN B] | 1 (≈ 1.08 µM) |  |  |  | 
2 | C[C@@H](N)[C@H](O)CCCCCCCCCCCCCCC(=O)CCCCCCC[C@@H](O)[C@@H](N)CO | 3 (≈ 6.16 µM) |  |  |  | 
3 | C[C@@H](N)[C@H](O)CCCCCCCCCCCCCCC(=O)CCCCCCC[C@@H](O[C@@H]1O[C@H](CO)[C@@H](O)[C@H](O)[C@H]1O)[C@@H](N)CO | 10 (≈ 15.4 µM) | inactive | inactive | inactive | inactive
